Assays:
AncCDT-5 = tested on: T1, AncCDT-5; test: end-point spectrophotometric phenylpyruvate formation ([…] nm); format: biochemical; conditions: equal volumes of protein in 20 mM Na2HPO4, 150 mM NaCl pH 7.4 and prephenate in 50 mM Na2HPO4 pH 8.0; room temperature (20–25 °C)
T1 construct: ancestral protein ending at Lys235; pDOTS7 vector, His6-tagged, expressed in E. coli delta-pheA; IMAC and SEC; predominantly monomeric

[1] = target: the molecule itself; test: SEC-MALS; 100 μL of each protein loaded at 10 mg mL^-1 on Superdex 200 10/300 GL; 20 mM Na2HPO4, 150 mM NaCl, pH 7.4; 0.5 mL min^-1; single experiment (n = 1)

| Molecule | Km (AncCDT-5) [µM] | stoichiometry N [1] |
| --- | --- | --- |
| O=C(O)C(=O)CC1(C(=O)O)C=CC(O)C=C1 (centres unmarked) [prephenate] | 277 ± 4 | – |
| cyclohexadienyl dehydratase from Pseudomonas aeruginosa (PaCDT) (enzyme, UniProt Q01269 26-268, looked up, cyclohexadienyl dehydratase, Pseudomonas aeruginosa, UniProt Q01269 residues 26-268; PDB 5HPQ and 6BQE number - 11); source: E. coli K-12 ΔpheA (pDOTS7), IMAC-purified; not shown: His6, N-terminal, kept) QESRLDRILESGVLRVATTGDYKPFSYRTEEGGYAGFDVDMAQRLAESLGAKLVVVPTSWPNLMRDFADDRFDIAMSGISINLERQRQAYFSIPYLRDGKTPITLCSEEARFQTLEQIDQPGVTAIVNPGGTNEKFARANLKKARILVHPDNVTIFQQIVDGKADLMMTDAIEARLQSRLHPELCAVHPQQPFDFAEKAYLLPRDEAFKRYVDQWLHIAEQSGLLRQRMEHWLEYRWPTAHGK | – | 3 |

Source: article PMC7683729, “Altered conformational sampling along an evolutionary trajectory changes the catalytic activity of an enzyme” (Nature Communications, 2020)
